Laboratory results: patent US4138554A, “7-[D-α-(4-Hydroxy-1,5-naphthyridine-3-carboxamido)-α-phenyl (and p-hydroxyphenyl)acetamido]-3-carbamoyloxymethyl-3-cephem-4-carboxylic acids” (priority 1977, dated 1979)
Values after ≈ are worked out from the molar mass of the structure shown. Read-outs that look alike come from different tables or passages of the source.

How the values were obtained:
Assay type in all cases: cell-based
S. aureus = assay: MIC by serial two-fold agar dilution (Mueller-Hinton agar), S. aureus; details: Staphylococcus aureus
Description: (§1) Minimum inhibitory concentrations (MIC) of BB-S520 were determined by serial two-fold agar dilution method using Steers' apparatus on Meuller-Hinton agar plate against 31 test organisms for the primary screening and also against 61 strains of Pseudomonas aeruginosa for the secondary evaluation. The results are shown in Table 1 and Table 2 along with those of BB-S514 and sulbenicillin.
(§2) Minimum inhibitory concentrations (MIC) of cephalosporins in the present study were determined by serial two-fold agar dilution method using Steers' apparatus on Mueller-Hinton agar plate against 31 test organisms for the primary screening and also against 61 strains of Pseudomonas aeruginosa for the secondary evaluation.

E. coli = assay: MIC by serial two-fold agar dilution (Mueller-Hinton agar), E. coli; details: Escherichia coli
Description: as §1, §2

P. mirabilis = assay: MIC by serial two-fold agar dilution (Mueller-Hinton agar), P. mirabilis; details: Proteus mirabilis, read-out: MIC
Description: as §1, §2

P. aeruginosa = assay: MIC by serial two-fold agar dilution (Mueller-Hinton agar), P. aeruginosa, primary screening; details: Pseudomonas aeruginosa, read-out: MIC
Description: as §1, §2

Pseudomonas sp. = assay: MIC by serial two-fold agar dilution (Mueller-Hinton agar), Pseudomonas sp.; details: Pseudomonas sp. A20358, Table 6
Description: as §2

`CC(=O)OCC1=C(C(=O)O)N2C(=O)C(NC(=O)C(NC(=O)c3cnc4cccnc4c3O)c3ccccc3)C2SC1` (centres unmarked) [BB-S514] gave an MIC (S. aureus; S. aureus BX-1633, Table 1, read-out: MIC) of 3.1 µg/mL (≈ 5.37 µM), an MIC (S. aureus; S. aureus Smith (1st line), Table 1, read-out: MIC) of 3.1 µg/mL (≈ 5.37 µM) and an MIC (S. aureus; S. aureus Smith (2nd line), Table 1, read-out: MIC) of 6.3 µg/mL (≈ 10.9 µM). The MIC (S. aureus; S. aureus, unnamed strain (4th S. aureus line), Table 1, read-out: MIC) was 25 µg/mL (≈ 43.3 µM), the MIC (S. aureus; S. aureus, unnamed strain (5th S. aureus line), Table 1, read-out: MIC) was 6.3 µg/mL (≈ 10.9 µM) and the MIC (S. aureus; S. aureus, unnamed strain (6th S. aureus line), Table 1, read-out: MIC) was greater than 100 µg/mL. The MIC (E. coli; E. coli Juhl, Table 1, read-out: MIC) was 12.5 µg/mL (≈ 21.6 µM), the MIC (E. coli; E. coli NIHJ, Table 1, read-out: MIC) was 0.1 µg/mL (≈ 0.173 µM) and the MIC (E. coli; E. coli, unnamed strain (3rd E. coli line), Table 1) was 0.4 µg/mL (≈ 0.693 µM). For the same molecule, the MIC (E. coli; E. coli, unnamed strain (4th E. coli line), Table 1, read-out: MIC) was 0.4 µg/mL (≈ 0.693 µM), the MIC (E. coli; E. coli, unnamed strain (5th E. coli line), Table 1, read-out: MIC) was greater than 100 µg/mL and the MIC (E. coli; E. coli, unnamed strain (6th E. coli line), Table 1, read-out: MIC) was 6.3 µg/mL (≈ 10.9 µM). It also gave an MIC (E. coli; E. coli, unnamed strain (7th E. coli line), Table 1, read-out: MIC) greater than 100 µg/mL, an MIC (E. coli; E. coli, unnamed strain (8th E. coli line), Table 1, read-out: MIC) of 12.5 µg/mL (≈ 21.6 µM) and an MIC (E. coli; E. coli, unnamed strain (9th E. coli line), Table 1, read-out: MIC) of 0.8 µg/mL (≈ 1.39 µM). For the same molecule, the MIC (P. mirabilis; P. mirabilis, Table 1) was 0.8 µg/mL (≈ 1.39 µM), the MIC (P. aeruginosa; P. aeruginosa (1st line), Table 1) was 3.1 µg/mL (≈ 5.37 µM) and the MIC (P. aeruginosa; P. aeruginosa (2nd line), Table 1) was 3.1 µg/mL (≈ 5.37 µM). For the same molecule, the MIC (P. aeruginosa; P. aeruginosa (3rd line), Table 1) was 6.3 µg/mL (≈ 10.9 µM), the MIC (P. aeruginosa; P. aeruginosa (4th line), Table 1) was 25 µg/mL (≈ 43.3 µM) and the MIC (P. aeruginosa; P. aeruginosa (5th line), Table 1) was 6.3 µg/mL (≈ 10.9 µM). It also gave an MIC (P. aeruginosa; P. aeruginosa (6th line), Table 1) of 3.1 µg/mL (≈ 5.37 µM).
Work on `NC(=O)OCC1=C(C(=O)O)N2C(=O)C(NC(=O)[C@H](NC(=O)c3cnc4cccnc4c3O)c3ccc(O)cc3)C2SC1` (single isomer, unassigned) [BB-S530, Sodium 7-[D-(-)-α-(4-hydroxy-1,5-naphthyridine-3-carboxamido)-α-(p-hydroxyphenyl)acetamido]-3-carbamoyloxymethyl-3-cephem-4-carboxylate] yielded an MIC (S. aureus; S. aureus BX-1633 A9606, Table 6, read-out: MIC) of 3.1 µg/mL, an MIC (S. aureus; S. aureus Smith A9537, Table 6, read-out: MIC) of 1.6 µg/mL and an MIC (S. aureus; S. aureus Smith A15907, Table 6) of 25 µg/mL. The MIC (S. aureus; S. aureus Smith A20239, Table 6, read-out: MIC) was 3.1 µg/mL, the MIC (S. aureus; S. aureus Smith A20240, Table 6, read-out: MIC) was 3.1 µg/mL and the MIC (S. aureus; S. aureus Smith A20701, Table 6, read-out: MIC) was 25 µg/mL. It also gave an MIC (E. coli; E. coli A9435, Table 6, read-out: MIC) of 3.1 µg/mL, an MIC (E. coli; E. coli A9844, Table 6, read-out: MIC) of 0.4 µg/mL and an MIC (E. coli; E. coli A10664, Table 6, read-out: MIC) of 0.2 µg/mL. It also gave an MIC (E. coli; E. coli A20366, Table 6, read-out: MIC) greater than 100 µg/mL, an MIC (E. coli; E. coli A20520, Table 6, read-out: MIC) of 3.1 µg/mL and an MIC (E. coli; E. coli A20732, Table 6, read-out: MIC) of 3.1 µg/mL. For the same molecule, the MIC (E. coli; E. coli A20898, Table 6, read-out: MIC) was 100 µg/mL, the MIC (E. coli; E. coli Juhl A15119, Table 6, read-out: MIC) was 1.6 µg/mL and the MIC (E. coli; E. coli NIHJ, Table 6, read-out: MIC) was 1.6 µg/mL. For the same molecule, the MIC (P. mirabilis; P. mirabilis A9900, Table 6) was 6.3 µg/mL, the MIC (P. aeruginosa; P. aeruginosa A9843, Table 6) was 1.6 µg/mL and the MIC (P. aeruginosa; P. aeruginosa A9930, Table 6) was 0.8 µg/mL. The MIC (P. aeruginosa; P. aeruginosa A15150, Table 6) was 1.6 µg/mL, the MIC (P. aeruginosa; P. aeruginosa A20229, Table 6) was 1.6 µg/mL and the MIC (P. aeruginosa; P. aeruginosa A20717, Table 6) was 3.1 µg/mL. The MIC (Pseudomonas sp.) was 0.4 µg/mL.
